# Target: T1, N370S glucocerebrosidase from human spleen homogenate (Homo sapiens, UniProt P04062, N409S)
# T1 construct: N370S glucocerebrosidase from human spleen homogenate as the enzyme preparation; from tissue; host or cells: human spleen homogenate
# T1 sequence (P04062 40-536 N409S): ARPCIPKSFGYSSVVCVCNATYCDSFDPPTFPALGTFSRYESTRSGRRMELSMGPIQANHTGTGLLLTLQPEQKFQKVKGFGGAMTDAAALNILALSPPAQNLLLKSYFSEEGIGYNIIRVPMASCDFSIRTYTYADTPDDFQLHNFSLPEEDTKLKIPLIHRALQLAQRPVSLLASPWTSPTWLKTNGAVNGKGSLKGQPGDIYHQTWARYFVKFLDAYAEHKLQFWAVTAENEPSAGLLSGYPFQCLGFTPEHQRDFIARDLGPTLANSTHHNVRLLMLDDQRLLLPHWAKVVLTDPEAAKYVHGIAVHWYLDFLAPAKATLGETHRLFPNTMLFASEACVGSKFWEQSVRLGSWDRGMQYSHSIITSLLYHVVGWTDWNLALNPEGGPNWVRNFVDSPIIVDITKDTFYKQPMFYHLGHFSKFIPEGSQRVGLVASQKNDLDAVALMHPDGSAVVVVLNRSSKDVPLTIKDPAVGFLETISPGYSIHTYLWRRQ
# Assay: qHTS fluorogenic enzyme assay for activators of N370S glucocerebrosidase (4-methylumbelliferyl-beta-D-glucopyranoside substrate)
# Type: biochemical
# Conditions: pH 5.0, 37° C. 40 min
# Source text: qHTS Assay for Inhibitors and Activators of N370S glucocerebrosidase as a Potential Chaperone Treatment of Gaucher Disease: Primary Screen Confirmation
# This is a fluorogenic enzyme assay with 4-methylumbelliferyl-beta-D-glucopyranoside as the substrate and N370S glucocerebrosidase from human spleen homogenate as the enzyme preparation. Upon the hydrolysis of this fluorogenic substrate, the resulting product, […] which can be detected by a standard fluorescence plate reader. Data were normalized to the controls for basal activity (without enzyme) and 100% activity (with enzyme). The AC50 values were determined from concentration-response data modeled with the standard Hill equation.
# Human spleen homogenate is prepared as follows by homogenizing spleen with assay buffer containing 50 mM citric acid (titrated with potassium phosphate to pH 5.0), 100 mM potassium chloride, 10 mM sodium chloride, 1 mM magnesium chloride, 0.01% Tween-20. The protein concentration of the human spleen homogenate is approximated 1.35 ug/ul.
# The assay is performed in 1536 well plates according to the following protocol. (1) 2 ul spleen homogenate ([…] final) is added to each well. (2) 23 nL test compound in DMSO solution is added to each well. The final concentration of compound in the test well is 0.5 nM to 58 uM. (3) 2 ul of substrate (1 mM final) are added to each well. (4) Incubate assay plates at 37° C. for 40 min. (5) Add 2 ul stop solution (1M NaOH and 1M Glycine mixture, pH 10) to each well. (6) Detect the assay plate in a ViewLux plate reader (PerkinElmer) using 365 nm excitation with emission at 440 nm.
row,AC50,Structure (SMILES)
1,15.8 µM,"C=C1C=C(C(F)F)n2ncc(C(=O)NCCc3ccc(Cl)cc3)c2N1 [NCGC00182159-01, N-(4-chlorophenethyl)-7-(difluoromethyl)-5-methylene-4,5-dihydropyrazolo[1,5-a]pyrimidine-3-carboxamide]"
2,2.51 µM,"C=C1C=C(C(F)F)n2ncc(C(=O)Nc3ccccc3OCC)c2N1 [NCGC00182160-01, 7-(difluoromethyl)-N-(2-ethoxyphenyl)-5-methylene-4,5-dihydropyrazolo[1,5-a]pyrimidine-3-carboxamide]"
3,15.8 µM,"C=C1C=C(C(F)F)n2ncc(C(=O)NCc3ccccc3C(F)(F)F)c2N1 [NCGC00182161-01, 7-(difluoromethyl)-5-methylene-N-(2-(trifluoromethyl)benzyl)-4,5-dihdyropyrazolo[1,5-a]pyrimidine-3-carboxamide]"
4,14.1 µM,"C=C1C=C(C(F)F)n2ncc(C(=O)NCc3ccccc3OC)c2N1 [NCGC00182162-01, 7-(difluoromethyl)-N-(2-methoxybenzyl)-5-methylene-4,5-dihydropyrazolo[1,5-a]pyrimidine-3-carboxamide]"
5,10 µM,"C=C1C=C(C)n2ncc(C(=O)Nc3ccccc3C(=O)OC)c2N1 [NCGC00182165-01, methyl 2-(7-methyl-5-methylene-4,5-dihydropyrazolo[1,5-a]pyrimidine-3-carboxamido)benzoate]"
6,3.98 µM,"C=C1C=C(C)n2ncc(C(=O)Nc3ccc(F)cc3F)c2N1 [NCGC00182166-01, N-(2,4-difluorophenyl)-7-methyl-5-methylene-4,5-dihydropyrazolo[1,5-a]pyrimidine-3-carboxamide]"
7,8.91 µM,"O=C(Nc1ccc2c(c1)OCCO2)c1cnn2c1NC(=C1CC1)C=C2C(F)F [NCGC00182167-01, 5-cyclopropylidene-7-(difluoromethyl)-N-(2,3-dihydrobenzo[b][1,4]dioxin-6-yl)-4,5-dihydropyrazolo[1,5-a]pyrimidine-3-carboxmaide]"
8,12.6 µM,"O=C(NC1CCCC1)c1cnn2c1NC(=C1CC1)C=C2C(F)F [NCGC00182170-01, N-cyclopentyl-5-cyclopropylidene-7-(difluoromethyl)-4,5-dihydropyrazolo[1,5-a]pyrimidine-3-carboxamide]"
9,3.16 µM,"O=C(Nc1cc(F)ccc1F)c1cnn2c1NC(=C1CC1)C=C2C(F)F [NCGC00182172-01, 5-cyclopropylidene-7-(difluoromethyl)-N-(2,5-difluorophenyl)-4,5-dihydropyrazolo[1,5-a]pyrimidine-3-carboxamide]"
10,3.98 µM,"O=C(Nc1ccc2c(c1)CCC2)c1cnn2c1NC(=C1CC1)C=C2C(F)F [NCGC00182174-01, 5-cyclopropylidene-7-(difluoromethyl)-N-(2,3-dihydro-1H-inden-5-yl)-4,5-dihydropyrazolo[1,5-a]pyrimidine-3-carboxamide]"
11,12.6 µM,"O=C(NC1CCCCC1)c1cnn2c1NC(=C1CC1)C=C2C(F)F [NCGC00182175-01, N-cyclohexyl-5-cyclopropylidene-7-(difluoromethyl)-4,5-dihydropyrazolo[1,5-a]pyrimidine-3-carboxamide]"
12,14.3 µM,"O=C(NC1CCCc2ccccc21)c1cnn2c1NC(=C1CC1)C=C2C(F)F (stereo not drawn) [NCGC00182176-01, 5-cyclopropylidene-7-(difluoromethyl)-N-(1,2,3,4-tetrahydronaphthalen-1-yl)-4,5-dihydropyrazolo[1,5-a]pyrimidine-3-carboxamide]"

# The remaining lines, values behind:
row,Structure (SMILES),AC50
1,"O=C(Nc1cnn(Cc2ccc(F)cc2)c1)c1cnn2c(C(F)F)cc(-c3ccccc3)nc12 [MLS000662187-01, 7-(difluoromethyl)-N-(1-(4-fluorobenzyl)-1H-pyrazol-4-yl)-5-phenylpyrazolo[1,5-a]pyrimidine-3-carboxamide]",3.26 µM
2,"CCC(C)c1ccc(NC(=O)c2cnn3c(C(F)F)cc(C)nc23)cc1 (stereo not drawn) [MLS000662237-01, N-(4-sec-butylphenyl)-7-(difluoromethyl)-5-methylpyrazolo[1,5-a]pyrimidine-3-carboxamide]",5.01 µM
3,"CCc1ccc(NC(=O)c2cnn3c(C(F)F)cc(C)nc23)cc1 [MLS000708974-01, 7-(difluoromethyl)-N-(4-ethylphenyl)-5-methylpyrazolo[1,5-a]pyrimidine-3-carboxamide]",2.24 µM
4,"Cc1cc(C)n2ncc(C(=O)Nc3ccc(Cl)c(Cl)c3)c2n1 [MLS000765493-01, N-(3,4-dichlorophenyl)-5,7-dimethylpyrazolo[1,5-a]pyrimidine-3-carboxamide]",7.08 µM
5,"Cc1cc(C)n2ncc(C(=O)Nc3ccc4c(c3)OCO4)c2n1 [NCGC00054856-02, N-(benzo[d][1,3]dioxol-5-yl)-5,7-dimethylpyrazolo[1,5-a]pyrimidine-3-carboxamide]",6.51 µM
6,"COC(=O)c1ccccc1NC(=O)c1cnn2c1NC(=C1CC1)C=C2C(F)F [NCGC00182132-01, methyl 2-(5-cyclopropylidene-7-(difluoromethyl)-4,5-dihydropyrazolo[1,5-a]pyrimidine-3-carboxamido)benzoate]",15.8 µM
7,"Cc1ccc(NC(=O)c2cnn3c2NC(=C2CC2)C=C3C(F)F)cc1C [NCGC00182133-01, 5-cyclopropylidene-7-(difluoromethyl)-N-(3,4-dimethylphenyl)-4,5-dihydropyrazolo[1,5-a]pyrimidine-3-carboxamide]",3.16 µM
8,"Cc1cccc(NC(=O)c2cnn3c2NC(=C2CC2)C=C3C(F)F)n1 [NCGC00182139-01, 5-cyclopropylidene-7-(difluoromethyl)-N-(6-methylpyridin-2-yl)-4,5-dihydropyrazolo[1,5-a]pyrimidine-3-carboxamide]",12.6 µM
9,"C=C1C=C(C(F)F)n2ncc(C(=O)Nc3ccc(C(C)CC)cc3)c2N1 (stereo not drawn) [NCGC00182141-01, N-(4-sec-butylphenyl)-7-(difluoromethyl)-5-methylene-4,5-dihydropyrazolo[1,5-a]pyrimidine-3-carboxamide]",2.51 µM
10,"C=C1C=C(C(F)F)n2ncc(C(=O)Nc3cccc(CC)c3)c2N1 [NCGC00182142-01, 7-(difluoromethyl)-N-(3-ethylphenyl)-5-methylene-4,5-dihydropyrazolo[1,5-a]pyrimidine-3-carboxamide]",10 µM
11,"C=C1C=C(C(F)F)n2ncc(C(=O)N3CCN(c4ccccn4)CC3)c2N1 [NCGC00182144-01, (7-(difluoromethyl)-5-methylene-4,5-dihydropyrazolo[1,5-a]pyrimidin-3-yl)(4-(pyridin-2-yl)piperazin-1-yl)methanone]",35.5 µM
12,"C=C1C=C(C(F)F)n2ncc(C(=O)NC(C)CC)c2N1 (stereo not drawn) [NCGC00182145-01, N-sec-butyl-7-(difluoromethyl)-5-methylene-4,5-dihydropyrazolo[1,5-a]pyrimidine-3-carboxamide]",31.6 µM
13,"C=C1C=C(C(F)F)n2ncc(C(=O)NCc3ccc(Cl)cc3Cl)c2N1 [NCGC00182146-01, N-(2,4-dichlorobenzyl)-7-(difluoromethyl)-5-methylene-4,5-dihydropyrazolo[1,5-a]pyrimidine-3-carboxamide]",10 µM
14,"C=C1C=C(C(F)F)n2ncc(C(=O)NCCc3ccccc3OC)c2N1 [NCGC00182147-01, 7-(difluoromethyl)-N-(2-methoxyphenethyl)-5-methylene-4,5-dihydropyrazolo[1,5-a]pyrimidine-3-carboxamide]",25.1 µM
15,"C=C1C=C(C(F)F)n2ncc(C(=O)NCc3ccccc3Cl)c2N1 [NCGC00182148-01, N-(2-chlorobenzyl)-7-(difluoromethyl)-5-methylene-4,5-dihydropyrazolo[1,5-a]pyrimidine-3-carboxamide]",14.1 µM
16,"C=C1C=C(C(F)F)n2ncc(C(=O)NCCc3ccccc3Cl)c2N1 [NCGC00182151-01, N-(2-chlorophenethyl)-7-(difluoromethyl)-5-methylene-4,5-dihydropyrazolo[1,5-a]pyrimidine-3-carboxamide]",31.6 µM
17,"C=C1C=C(C(F)F)n2ncc(C(=O)N3CCN(c4ccccc4)CC3)c2N1 [NCGC00182152-01, (7-(difluoromethyl)-5-methylene-4,5-dihydropyrazolo[1,5-a]pyrimidin-3-yl)(4-phenylpiperazin-1-yl)methanone]",31.6 µM
18,"C=C1C=C(C(F)F)n2ncc(C(=O)Nc3ccc(N(CC)CC)cc3)c2N1 [NCGC00182154-01, N-(4-(diethylamino)phenyl)-7-(difluoromethyl)-5-methylene-4,5-dihydropyrazolo[1,5-a]pyrimidine-3-carboxamide]",11.2 µM

# From patent US10925874B2, “Substituted pyrazolopyrimidines as glucocerebrosidase activators” (The United States of America, as Represented by the …, priority 2010, dated 2021)
